Target: T1, 17β-HSD10 (Homo sapiens, UniProt Q99714)
T1 construct: Histev (histidine tag with TEV site) (N, cleaved yes); made in house; host or cells: E. coli BL21-CodonPlus
T1 sequence (Q99714 1-261): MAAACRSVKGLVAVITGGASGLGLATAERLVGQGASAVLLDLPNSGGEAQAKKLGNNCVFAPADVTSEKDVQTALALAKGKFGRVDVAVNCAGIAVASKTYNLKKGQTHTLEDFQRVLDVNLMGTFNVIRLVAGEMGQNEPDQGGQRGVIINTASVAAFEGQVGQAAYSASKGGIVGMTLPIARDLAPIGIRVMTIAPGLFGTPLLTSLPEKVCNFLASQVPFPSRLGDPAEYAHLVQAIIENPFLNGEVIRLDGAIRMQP
Assay: 17β-HSD10 (ABAD) enzyme inhibition assay, NADH oxidation read at 340 nm (primary screen and dose response)
Assay type: biochemical
Conditions: for EC50 / Max. Effect (%) / Hill Slope / Max. Fit / Min. Fit: recombinant 17βHSD10 enzyme assay; for Hill Slope / Max. Fit / Min. Fit: curve fit
Experimental: Cell pellets of E. coli BL21-CodonPlus cells containing Histev-17β-HSD10 protein were re-suspended for 30 min, 4° C., in lysis buffer (20 mM NaH2PO4, 30 mM imidazole, 500 mM NaCl, 10% (v/v) glycerol, pH 7.5) with the addition of complete ethylenediaminetetraacetic acid (EDTA)-free protease inhibitor tablets (Roche), lysozyme (1 mg/mL), deoxyribonuclease (DNase) (20 μg/mL) and Triton X-100 (0.1% (v/v)). Cells were lysed by passage through a cell disruptor at 30 kPSI (Constant Systems Ltd) and the lysate was cleared by centrifugation (Sorvall Evolution RC, rotor S5-34 55-34 angle, 20500 rpm, 30 min, 4° C.). Cleared lysate was filtered (0.45 μm membrane; Whatman) then applied to a Ni-nitrilotriacetic acid (NTA) (GE Healthcare) column pre-washed with lysis buffer and protein eluted with 300 mM imidazole buffer (20 mM NaH2PO4, 300 mM imidazole, 500 mM NaCl, 10% (v/v) glycerol, pH 7.5). […] Protein digestion and dialysis was carried out at 4° C. for 16 h.
Complete digestion was firstly checked by sodium dodecyl sulfate-polyacrylamide gel electrophoresis (SDS-PAGE), then fully digested protein was passed over a second Ni-column and the flow-through, containing 17β-HSD10 protein, was concentrated using a Vivaspin column (10 kDa MWCO, GE Healthcare) to ˜7 mL before final purification using gel filtration to remove imidazole (Hi-Load 16/60 Superdex 75 prep grade column, GE Healthcare, flow rate 1.5 mL/min). Protein was eluted in gel filtration buffer (10 mM trisaminomethane (Tris-HCl), 150 mM NaCl, 10% glycerol, pH 7.5) and concentrated (Vivaspin column (10 kDa molecular weight cut off (MWCO), GE Healthcare)) to 10 mg/mL. Aliquots (10 μL) were taken and flash frozen in liquid nitrogen before final storage at −80° C.
The assay buffer used contains: 10 mM Tris. HCl (pH 7.4), 150 mM NaCl, 1 mM DTT, 0.005% Tween (polysorbate 20) and 0.01% bovine serum albumin (BSA). As indicated for some experiments the assay buffer was supplemented with 100 units/ml bovine liver catalase. All experiments were conducted in clear bottom 384-well or 1536-well low volume microplates (Corning) with a final assay volume of 20 μL and the reaction progress was monitored by oxidation of NADH as determined by reduction in absorbance at 340 nm read on the EnVision plate reader (PerkinElmer).
For primary screening an endpoint assay format was adopted in which an Echo acoustic liquid dispenser (Labcyte) was used to transfer 20 nL of either reference standard, dimethylsulfoxide (DMSO) control ([…] final assay concentration (FAC)) or test compounds (10 μM FAC) to the assay plate. 10 μL of 17β-HSD10 enzyme in assay buffer (2.5 nM, FAC) was then added to the plates using the Preddator liquid handling robot (Redd and Whyte) and plates were incubated at room temperature for 15 minutes. 10 μL of substrate mixture (100 μM acetoacetyl-CoA and 100 μM NADH, FAC) was added with the Preddator. To start the reaction and the plates were left to incubate for 35 minutes at room temperature before the absorbance at 340 nm was read on the EnVision plate reader (PerkinElmer). For kinetic assay format and dose response follow up experiments the same protocol was adopted but the absorbance at 340 nm was monitored constantly for 45 minutes from immediately after the reaction was started.

With `Cc1ccsc1C(=O)N1CCC[C@@H]1c1ccccc1-c1ccc(C2CC2)cc1` [ESC1002422] the EC50 was 0.562 µM, the “Max. Effect (%)” value was 93% and the “Hill Slope” value was 1.6. For the same compound, the “Max. Fit” value was 90 and the “Min. Fit” value was 1.

`Cc1ccsc1C(=O)N1CCC[C@@H]1c1ccccc1-c1ccc(F)cc1` [ESC1002423] was tested, and the EC50 was 0.38 µM, the “Max. Effect (%)” value was 96% and the “Hill Slope” value was 2.3. For the same compound, the “Max. Fit” value was 93 and the “Min. Fit” value was 9.

For `Cc1ccsc1C(=O)N1CCC[C@@H]1c1ccccc1-c1cnn(C)c1` [ESC1002424], the EC50 was 0.933 µM, the “Max. Effect (%)” value was 96% and the “Hill Slope” value was 1.3. The “Max. Fit” value was 96 and the “Min. Fit” value was 2.

With `COc1cccc(-c2ccccc2[C@H]2CCCN2C(=O)c2cccs2)c1` [ESC1002425] the EC50 was 0.479 µM, the “Max. Effect (%)” value was 96% and the “Hill Slope” value was 1.1. For the same compound, the “Max. Fit” value was 95 and the “Min. Fit” value was −8.

For `COc1cccc(-c2ccccc2[C@H]2CCCN2C(=O)c2ccc(C)s2)c1` [ESC1002426], the EC50 was over 20 µM and the “Max. Effect (%)” value was 22%.

`COc1cccc(-c2ccccc2[C@H]2CCCN2C(=O)c2sc(C)nc2C)c1` [ESC1002427] was tested, and the EC50 was over 20 µM and the “Max. Effect (%)” value was 4%.

`COc1cccc(-c2ccccc2[C@H]2CCCN2C(=O)c2cc(C)cs2)c1` [ESC1002428] was tested, and the EC50 was over 20 µM and the “Max. Effect (%)” value was 16%.

In the case of `COc1cccc(-c2ccccc2[C@H]2CCCN2C(=O)c2snnc2C)c1` [ESC1002429], the “17β-HSD10 / ABAD activity in words (SAR discussion)” value (shortened to “17β-HSD10 / ABAD activity in words”) is reported as “significantly less active”, the EC50 is reported as over 20 µM and the “Max. Effect (%)” value is reported as 6%.

With `COc1cccc(-c2ccccc2[C@H]2CCCN2C(=O)c2scnc2C)c1` [ESC1002430] the “17β-HSD10 / ABAD activity in words” value was “significantly less active”, the EC50 was 6.03 µM and the “Max. Effect (%)” value was 65%. The “Hill Slope” value was 1.2, the “Max. Fit” value was 80 and the “Min. Fit” value was −1.

For `COc1cccc(-c2ccccc2[C@H]2CCCN2C(=O)c2sccc2F)c1` [ESC1002431], the EC50 was 0.977 µM, the “Max. Effect (%)” value was 96% and the “Hill Slope” value was 1.5. The “Max. Fit” value was 95 and the “Min. Fit” value was 1.

For `COc1cccc(-c2ccccc2[C@H]2CCCN2C(=O)c2sccc2OC)c1` [ESC1002433], the EC50 was over 20 µM and the “Max. Effect (%)” value was 17%.

With `COc1cccc(-c2ccccc2[C@H]2CCCN2C(=O)c2ccccc2C)c1` [ESC1002434] the “17β-HSD10 / ABAD activity in words” value was “not tolerated”, the EC50 was over 20 µM and the “Max. Effect (%)” value was 20%.

In the case of `COc1cccc(-c2ccccc2[C@H]2CCCN2C(=O)C2CCOCC2)c1` [ESC1002435], the EC50 is reported as over 20 µM and the “Max. Effect (%)” value is reported as 12%.

With `COc1cccc(-c2ccccc2[C@H]2CCCN2C(=O)C2CCN(C)CC2)c1` [ESC1002436] the EC50 was over 20 µM and the “Max. Effect (%)” value was 2%.

In the case of `CC(C)CN(C(=O)c1ccc(F)cc1F)c1cccc(N(C)Cc2c[nH]cn2)c1` [ESC1002454, 2,4-difluoro-N-[3-[1H-imidazol-4-ylmethyl(methyl)amino]phenyl]-N-isobutyl-benzamide], the EC50 is reported as 0.457 µM, the “Max. Effect (%)” value is reported as 96% and the “Hill Slope” value is reported as 1.1. For the same compound, the “Max. Fit” value was 97 and the “Min. Fit” value was −8.

`CC(C)CN(C(=O)c1ccc(C(F)(F)F)cc1F)c1cccc(N(C)Cc2c[nH]cn2)c1` [ESC1002455, 2-fluoro-N-[3-[1H-imidazol-4-ylmethyl(methyl)amino]phenyl]-N-isobutyl-4-(trifluoromethyl)benzamide] was tested, and the EC50 was 1.26 µM, the “Max. Effect (%)” value was 92% and the “Hill Slope” value was 0.99. The “Max. Fit” value was 97 and the “Min. Fit” value was −7.

In the case of `CC(C)CN(C(=O)c1ccccc1Cl)c1cccc(N(C)Cc2c[nH]cn2)c1` [ESC1002457, 2-chloro-N-[3-[1H-imidazol-4-ylmethyl(methyl)amino]phenyl]-N-isobutyl-benzamide], the EC50 is reported as 0.447 µM, the “Max. Effect (%)” value is reported as 95% and the “Hill Slope” value is reported as 1.4. For the same compound, the “Max. Fit” value was 94 and the “Min. Fit” value was −4.

For `COc1ccccc1C(=O)N(CC(C)C)c1cccc(N(C)Cc2c[nH]cn2)c1` [ESC1002458], the EC50 was 0.55 µM, the “Max. Effect (%)” value was 96% and the “Hill Slope” value was 1. The “Max. Fit” value was 97 and the “Min. Fit” value was −7.

With `CCc1ccc(C(=O)N(CC(C)C)c2cccc(N(C)Cc3c[nH]cn3)c2)cc1` [ESC1002459, 4-ethyl-N-[3-[1H-imidazol-4-ylmethyl(methyl)amino]phenyl]-N-isobutyl-benzamide] the EC50 was 0.832 µM, the “Max. Effect (%)” value was 93% and the “Hill Slope” value was 1.2. The “Max. Fit” value was 94 and the “Min. Fit” value was −4.

With `CC(C)CN(C(=O)c1ccc(Cl)s1)c1cccc(N(C)Cc2c[nH]cn2)c1` [ESC1002460, 5-chloro-N-[3-[1H-imidazol-4-ylmethyl(methyl)amino]phenyl]-N-isobutyl-thiophene-2-carboxamide] the EC50 was 1.2 µM, the “Max. Effect (%)” value was 90% and the “Hill Slope” value was 1. The “Max. Fit” value was 95 and the “Min. Fit” value was −5.

With `Cc1ccsc1C(=O)N1CCC[C@@H]1c1ccccc1-c1ccccc1` [ESC1002462] the EC50 was 0.234 µM, the “Max. Effect (%)” value was 99% and the “Hill Slope” value was 1.4. The “Max. Fit” value was 98 and the “Min. Fit” value was 6.

`Cc1ccsc1C(=O)N1CCC[C@@H]1c1ccccc1-c1cnn(CCO)c1` [ESC1002463] was tested, and the EC50 was 3.47 µM, the “Max. Effect (%)” value was 87% and the “Hill Slope” value was 0.79. For the same compound, the “Max. Fit” value was 110 and the “Min. Fit” value was −6.

In the case of `Cc1ccsc1C(=O)N1CCC[C@@H]1c1ccccc1-c1c[nH]nc1C` [ESC1002464], the EC50 is reported as 2.04 µM, the “Max. Effect (%)” value is reported as 84% and the “Hill Slope” value is reported as 1.1. For the same compound, the “Max. Fit” value was 91 and the “Min. Fit” value was −5.

For `Cc1ccsc1C(=O)N1CCC[C@@H]1c1ccccc1-c1c[nH]nc1C(F)(F)F` [ESC1002465], the EC50 was 1.51 µM, the “Max. Effect (%)” value was 87% and the “Hill Slope” value was 1.2. The “Max. Fit” value was 90 and the “Min. Fit” value was −2.

For `Cc1ccsc1C(=O)N1CCC[C@@H]1c1ccccc1-c1cnn(C2CCNCC2)c1` [ESC1002466], the EC50 was 18.2 µM, the “Max. Effect (%)” value was 52% and the “Hill Slope” value was 1. For the same compound, the “Max. Fit” value was 95 and the “Min. Fit” value was −1.

`Cc1ccccc1C(=O)N(CC(C)C)c1cccc(N(C)Cc2c[nH]cn2)c1` [ESC1002491, N-[3-[1H-imidazol-4-ylmethyl(methyl)amino]phenyl]-N-isobutyl-2-methyl-benzamide] was tested, and the EC50 was 1.17 µM, the “Max. Effect (%)” value was 96% and the “Hill Slope” value was 1. For the same compound, the “Max. Fit” value was 102 and the “Min. Fit” value was 2.

With `Cc1ccc(C(=O)N(CC(C)C)c2cccc(N(C)Cc3c[nH]cn3)c2)c(C)c1` [ESC1002492, N-[3-[1H-imidazol-4-ylmethyl(methyl)amino]phenyl]-N-isobutyl-2,4-dimethyl-benzamide] the EC50 was 0.871 µM, the “Max. Effect (%)” value was 93% and the “Hill Slope” value was 0.73. For the same compound, the “Max. Fit” value was 104 and the “Min. Fit” value was −10.

`CC(C)CN(C(=O)c1ccccc1C(F)(F)F)c1cccc(N(C)Cc2c[nH]cn2)c1` [ESC1002493, N-[3-[1H-imidazol 4-ylmethyl(methyl)amino]phenyl]-N-isobutyl-2-(trifluoromethyl)benzamide] was tested, and the EC50 was 0.977 µM, the “Max. Effect (%)” value was 94% and the “Hill Slope” value was 0.75. The “Max. Fit” value was 104 and the “Min. Fit” value was −8.

With `COc1cccc(-c2ccccc2[C@H]2CCCN2Cc2ccccc2)c1` [ESC1002504] the EC50 was over 20 µM and the “Max. Effect (%)” value was −6%.

`COc1cccc(-c2ccccc2[C@H]2CCCN2C(C)c2ccccc2)c1` (stereo partly drawn) [ESC1002505] was tested, and the EC50 was over 20 µM and the “Max. Effect (%)” value was 3%.

— patent US20260132123A1, “ABAD INHIBITOR COMPOUNDS” (UNIVERSITY COURT OF THE UNIVERSITY OF ST ANDREWS, priority 2021, published 2026)
